Values of other authors as cited in US20230114993A1 (priority 2019, published 2023).

System: CADASIL
Settings: compared to placebo, CADASIL patients

With `COc1cc2c(cc1OC)C(=O)C(CC1CCN(Cc3ccccc3)CC1)C2` (stereo not shown) [donepezil] as the compound, how does the “Treatment effect in cognitive and executive function assessments” value read?
Its value is “failed to show any treatment effect”.
